Each structure is given as a SMILES string.

By Kd is commonly meant the equilibrium constant for the complex coming apart.

For this test, the target named is T1, Coa6 (cytochrome c oxidase assembly factor 6) (Mus musculus, UniProt Q8BGD8).
T1 construct: E. coli BL21(DE3); Ni-bead purification (vector His tag, removal not mentioned)
T1 sequence (Q8BGD8 1-79): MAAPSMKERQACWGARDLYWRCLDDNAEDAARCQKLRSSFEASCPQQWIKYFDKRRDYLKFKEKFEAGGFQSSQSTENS
In words: surface plasmon resonance (CM5 chip, immobilised Coa6). To be noted: analyte 0.39–25 μM CoQ10; protein amine-coupled, ~12,600 RU. The test is classed as binding.

`COC1=C(OC)C(=O)C(C/C=C(\C)CC/C=C(\C)CC/C=C(\C)CC/C=C(\C)CC/C=C(\C)CC/C=C(\C)CC/C=C(\C)CC/C=C(\C)CC/C=C(\C)CCC=C(C)C)=C(C)C1=O` [CoQ10]: the Kd was found to be 24 µM.
